From ChEMBL document CHEMBL1932914, “A new class of non-thiazolidinedione, non-carboxylic-acid-based highly selective peroxisome proliferator-activated receptor (PPAR) γ agonists: design and synthesis of benzylpyrazole acylsulfonamides” (Bioorg Med Chem, 2012)
Active and inactive are the calls of the source. The rule behind the calls is not given here.

What was measured:
[1] = biological target: T1, Peroxisome proliferator-activated receptor gamma (Homo sapiens, UniProt P37231); assay: Agonist activity at full length human PPARgamma1 transfected in […] cells co expressing RXRalpha and PPRE after 1 day by luciferase reporter gene transactivation assay; type: functional, cell-based, CHO-K1
T1 sequence (P37231 whole entry): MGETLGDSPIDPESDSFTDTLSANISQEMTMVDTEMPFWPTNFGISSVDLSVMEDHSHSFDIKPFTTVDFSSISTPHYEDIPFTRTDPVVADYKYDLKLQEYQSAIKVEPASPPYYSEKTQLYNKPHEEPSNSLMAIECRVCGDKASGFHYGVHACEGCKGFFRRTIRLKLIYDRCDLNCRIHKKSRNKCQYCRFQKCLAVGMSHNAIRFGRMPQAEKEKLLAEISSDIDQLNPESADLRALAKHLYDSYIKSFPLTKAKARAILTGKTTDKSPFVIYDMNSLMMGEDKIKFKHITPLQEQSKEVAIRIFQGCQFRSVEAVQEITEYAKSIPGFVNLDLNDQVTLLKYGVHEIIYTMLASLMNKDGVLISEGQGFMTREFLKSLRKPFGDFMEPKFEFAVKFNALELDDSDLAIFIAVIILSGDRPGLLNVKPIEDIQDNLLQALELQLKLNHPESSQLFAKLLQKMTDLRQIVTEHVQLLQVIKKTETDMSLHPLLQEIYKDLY

[2] = Clearance in human liver microsomes at 1 umol/L after 20 mins by HPLC analysis; type: ADME, Microsome; details: read-out: CLH
[3] = biological target: T2, Peroxisome proliferator-activated receptor alpha (Homo sapiens, UniProt Q07869); assay: Agonist activity at human PPARalpha expressed in COS-1 cells after 1 day by luciferase reporter gene transactivation assay; type: functional, cell-based
T2 sequence (Q07869 whole entry): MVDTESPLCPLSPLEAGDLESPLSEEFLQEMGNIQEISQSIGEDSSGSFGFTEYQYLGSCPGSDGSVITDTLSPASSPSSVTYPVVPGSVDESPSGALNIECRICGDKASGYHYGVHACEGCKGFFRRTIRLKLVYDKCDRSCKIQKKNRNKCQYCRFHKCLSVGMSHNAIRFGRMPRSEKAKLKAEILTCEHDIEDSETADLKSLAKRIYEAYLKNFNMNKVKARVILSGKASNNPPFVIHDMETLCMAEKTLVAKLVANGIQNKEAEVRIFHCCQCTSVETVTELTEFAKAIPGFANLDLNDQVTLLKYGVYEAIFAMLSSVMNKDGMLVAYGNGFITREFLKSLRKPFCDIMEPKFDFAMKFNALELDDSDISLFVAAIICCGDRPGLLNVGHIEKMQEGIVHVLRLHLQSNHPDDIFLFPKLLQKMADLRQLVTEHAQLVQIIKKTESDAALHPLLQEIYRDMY

[4] = biological target: T3, Peroxisome proliferator-activated receptor delta (Homo sapiens, UniProt Q03181); assay: Agonist activity at human PPARdelta expressed in COS-1 cells after 2 days by luciferase reporter gene transactivation assay; type: functional, cell-based
T3 sequence (Q03181 whole entry): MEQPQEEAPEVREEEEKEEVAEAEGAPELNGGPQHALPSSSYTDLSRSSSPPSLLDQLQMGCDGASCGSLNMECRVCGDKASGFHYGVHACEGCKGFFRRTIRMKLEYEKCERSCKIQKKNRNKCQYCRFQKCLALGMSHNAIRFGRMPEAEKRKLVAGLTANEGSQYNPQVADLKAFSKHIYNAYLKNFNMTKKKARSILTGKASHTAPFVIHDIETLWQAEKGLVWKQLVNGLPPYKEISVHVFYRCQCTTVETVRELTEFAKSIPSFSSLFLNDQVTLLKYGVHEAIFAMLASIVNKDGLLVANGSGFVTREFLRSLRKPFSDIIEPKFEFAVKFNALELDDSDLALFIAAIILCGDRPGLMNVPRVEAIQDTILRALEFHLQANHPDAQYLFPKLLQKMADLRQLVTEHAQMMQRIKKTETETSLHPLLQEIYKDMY

[5] = biological target: T1, Peroxisome proliferator-activated receptor gamma; assay: Displacement of [3H]-AD-5061 from human GST-tagged PPARgamma
[6] = biological target: T4, Peroxisome proliferator-activated receptor alpha (Homo sapiens) (UniProt Q07869); assay: Binding affinity to PPARalpha at 10 uM by competitive binding assay
T4 sequence (whole entry): T2 sequence (Q07869 whole entry)

[7] = biological target: T5, Peroxisome proliferator-activated receptor delta (Homo sapiens) (UniProt Q03181); assay: Binding affinity to PPARdelta at 10 uM by competitive binding assay
T5 sequence (whole entry): T3 sequence (Q03181 whole entry)

Homo sapiens = species on record: Homo sapiens; assay: Selectivity ratio of EC50 for human PPARalpha to EC50 for human PPARgamma1
[8] = biological target: PPAR delta/gamma (Homo sapiens) (UniProt P37231+Q03181); assay: Selectivity ratio of EC50 for human PPARdelta to EC50 for human PPARgamma1
Rattus norvegicus [9] = assay: Antidiabetic activity in po dosed fatty Wister rat assessed as reduction of plasma glucose level administered once daily for 7 days; type: functional; details: for ED25: 168 h
[10] = Clearance in rat liver microsomes at 1 umol/L after 20 mins by HPLC analysis; type: ADME, Microsome; details: read-out: CLH
Rattus norvegicus [11] = assay: Antidiabetic activity in po dosed fatty Wister rat assessed as reduction of triglyceride level administered once daily for 7 days; type: functional; details: for ED25: 168 h
[12] = biological target: T4, Peroxisome proliferator-activated receptor alpha (Homo sapiens); assay: Agonist activity at human PPARalpha expressed in COS-1 cells at 10 uM after 1 day by luciferase reporter gene transactivation assay; type: functional, cell-based

Row | Compound | EC50 ([1]; read-out: EC50) [nM] | microsomal CLint at 1 µM [2] [µL/min/mg] | EC50 [3] [nM] | EC50 [4] [nM] | Ratio EC50 (Homo sapiens) | Ratio EC50 [8] | also measured
1 | CCCCCS(=O)(=O)NC(=O)CCc1cc(OC(C)C)nn1Cc1ccc(C(F)(F)F)cc1Cl | 10 | 163 | > 10000 | > 10000 | > 500 | > 500 | IC50 [5]: 21 nM; Activity [6]: inactive; Activity [7]: inactive
2 | CCCCCS(=O)(=O)NC(=O)/C=C/c1cc(C(C)C)nn1Cc1ccc(Cl)cc1Cl | 8.2 | 99 | > 10000 | > 10000 | > 500 | > 500 | –
3 | CCCCCS(=O)(=O)NC(=O)CCc1cc(OCCOC)nn1Cc1ccc(Cl)cc1Cl | 31 | 144 | > 10000 | > 10000 | – | – | –
4 | CCCCCS(=O)(=O)NC(=O)/C=C/c1cc(OC(C)C)nn1Cc1ccc(C(F)(F)F)cc1Cl | – | 26 | > 10000 | > 10000 | > 500 | > 500 | IC50 [5]: 23 nM; Activity [6]: inactive; Activity [7]: inactive; Activity (Rattus norvegicus [9]): Dose-dependent effect; ED25 (Rattus norvegicus [9]): 0.12 mg/kg; microsomal CLint at 1 µM [10]: 33 µL/min/mg; Activity (Rattus norvegicus [11]): Dose-dependent effect; ED25 (Rattus norvegicus [11]): 0.04 mg/kg
5 | CCCCCS(=O)(=O)NC(=O)Cc1cc(OCCCC)nn1Cc1ccc(Cl)cc1Cl | > 10000 | – | – | – | – | – | –
6 | CCCCCCS(=O)(=O)NC(=O)CCc1cc(OC(C)C)nn1Cc1ccc(Cl)cc1Cl | 21 | – | > 10000 | > 10000 | – | – | –
7 | CCCCCS(=O)(=O)NC(=O)CCc1cc(C(C)C)nn1Cc1ccc(Cl)cc1Cl | 13 | 124 | > 10000 | > 10000 | > 500 | > 500 | –
8 | CC(C)Oc1cc(CCC(=O)O)n(Cc2ccc(Cl)cc2Cl)n1 | 500 | – | – | – | – | – | –
9 | CC(C)Oc1cc(CCC(=O)NS(=O)(=O)Cc2ccccc2)n(Cc2ccc(Cl)cc2Cl)n1 | 260 | 107 | – | – | – | – | –
10 | CCCCCS(=O)(=O)NC(=O)CCc1cc(OCc2ccccn2)nn1Cc1ccc(Cl)cc1Cl | 120 | 224 | > 10000 | > 10000 | – | – | –
11 | CC(C)Oc1cc(CCC(=O)NS(=O)(=O)c2ccccc2)n(Cc2ccc(Cl)cc2Cl)n1 | 110 | – | > 10000 | > 10000 | – | – | –
12 | CCCCCS(=O)(=O)NC(=O)CCc1cc(C2CC2)nn1Cc1ccc(C(F)(F)F)cc1Cl | 13 | 78 | > 10000 | > 10000 | > 500 | > 500 | –
13 | CCCCCS(=O)(=O)NC(=O)CCc1cc(OCCCC)nn1Cc1ccc(Cl)cc1Cl | – | – | > 10000 | > 10000 | – | – | –
14 | CCCCS(=O)(=O)NC(=O)CCc1cc(OC(C)C)nn1Cc1ccc(Cl)cc1Cl | 40 | 165 | > 10000 | > 10000 | – | – | –
15 | CCCCCS(=O)(=O)NC(=O)/C=C/c1cc(C2CC2)nn1Cc1ccc(C(F)(F)F)cc1Cl | – | 54 | > 10000 | > 10000 | > 500 | > 500 | IC50 [5]: 12 nM; Activity [6]: inactive; Activity [7]: inactive; Activity (Rattus norvegicus [9]): Dose-dependent effect; ED25 (Rattus norvegicus [9]): 0.42 mg/kg; microsomal CLint at 1 µM [10]: 116 µL/min/mg; Activity (Rattus norvegicus [11]): Dose-dependent effect; ED25 (Rattus norvegicus [11]): 0.55 mg/kg
16 | CC(C)Oc1cc(CCC(=O)NS(=O)(=O)C2CCCCC2)n(Cc2ccc(Cl)cc2Cl)n1 | 150 | – | > 10000 | > 10000 | – | – | –
17 | CCCCCS(=O)(=O)NC(=O)/C=C/c1cc(OC(C)C)nn1Cc1ccc(Cl)cc1Cl | – | 29 | > 10000 | > 10000 | > 500 | > 500 | –
18 | CCCS(=O)(=O)NC(=O)CCc1cc(OC(C)C)nn1Cc1ccc(Cl)cc1Cl | 160 | – | – | – | – | – | –
19 | CCCCCS(=O)(=O)NC(=O)c1cc(OCCCC)nn1Cc1ccc(Cl)cc1Cl | – | – | – | – | – | – | EC50 ([1]; cho-k1): Not Active
20 | CC(C)Oc1cc(CCC(=O)NS(C)(=O)=O)n(Cc2ccc(Cl)cc2Cl)n1 | 450 | – | – | – | – | – | –
21 | CCCCCS(=O)(=O)NC(=O)CCc1cc(OC(C)C)nn1Cc1ccc(Cl)cc1Cl | – | 192 | – | – | > 500 | > 500 | Activity (Rattus norvegicus [9]): inactive; microsomal CLint at 1 µM [10]: 128 µL/min/mg
22 | CCCCCS(=O)(=O)NC(=O)CCc1cc(-c2ccccc2)nn1Cc1ccc(Cl)cc1Cl | 11 | 111 | > 10000 | > 10000 | – | – | –
23 | COCCOc1cc(/C=C/C(=O)NS(=O)(=O)CCC(C)C)n(Cc2ccc(C(F)(F)F)cc2Cl)n1 | 9 | 34 | > 10000 | > 10000 | > 500 | > 500 | Activity [12]: 47%
24 | CCCCCS(=O)(=O)NC(=O)CCCc1cc(OCCCC)nn1Cc1ccc(Cl)cc1Cl | 67 | – | – | – | – | – | –
25 | CCCCCS(=O)(=O)NC(=O)CCCCc1cc(OCCCC)nn1Cc1ccc(Cl)cc1Cl | 29 | – | – | – | – | – | –
26 | CCCCCS(=O)(=O)NC(=O)CCc1cc(C(C)C)nn1Cc1ccc(C(F)(F)F)cc1Cl | – | 136 | > 10000 | > 10000 | > 500 | > 500 | –
27 | CC(C)CCS(=O)(=O)NC(=O)CCc1cc(OC(C)C)nn1Cc1ccc(Cl)cc1Cl | 17 | – | > 10000 | > 10000 | – | – | –
28 | CCCCCS(=O)(=O)NC(=O)CCc1cc(OCc2ccccc2)nn1Cc1ccc(Cl)cc1Cl | 14 | 100 | > 10000 | > 10000 | – | – | –
29 | CC(C)CCS(=O)(=O)NC(=O)/C=C/c1cc(OC(C)C)nn1Cc1ccc(C(F)(F)F)cc1Cl | – | 32 | > 10000 | > 10000 | > 500 | > 500 | IC50 [5]: 15 nM; Activity [6]: inactive; Activity [7]: inactive; Activity (Rattus norvegicus [9]): Dose-dependent effect; ED25 (Rattus norvegicus [9]): 0.21 mg/kg; microsomal CLint at 1 µM [10]: 51 µL/min/mg; Activity (Rattus norvegicus [11]): Dose-dependent effect; ED25 (Rattus norvegicus [11]): 0.09 mg/kg; Activity [12]: 48%
